# Laboratory results published in US10898475B2, “Bach1 inhibitors in combination with Nrf2 activators and pharmaceutical compositions thereof” (vTv Therapeutics LLC, priority 2014, dated 2021).
# Tested on: HMOX1 in Normal Human Lung Fibroblasts (NHLF)
# Assay: HMOX1 Protein Expression (immunostaining, fold induction or % positive cells over DMSO)
# Details: for Hill slope of DMF dose response curves in Table 2: % Positive HMOX
# Description: Normal Human Lung Fibroblasts (NHLF) obtained from Lonza were cultured in T-225 flasks using conditions recommended by the vendor (FGM-2 medium supplemented with 2% fetal bovine serum (FBS), fibroblast growth factor (hFGF-B) 0.5 mL, insulin 0.5 mL, and gentamicin/amphotericin-B 0.5 mL at 37° C. in a humidified atmosphere of 5% CO2).
# For assays, cell were thawed and placed into culture in T225 flasks, grown to be 80% confluent, and harvested as described by the vendor. NHLF cells (2.5×10^4 cells per well) were plated in 384 well optilux tissue culture (BD) plates and incubated overnight in media prior to exposure to compound. Cells were incubated with DMSO or various combinations of either an Nrf2 Activator (DMF (dimethyl fumarate)/CDDO-Me) or a Bach1 Inhibitor for 16-18 hr. Cells were then fixed and permeabilized prior to incubation with HMOX1 antibody (abcam; 1:300 dilution in 1% BSA in PBS) for 1 hour. Cells were then washed and incubated with a solution of fluorescently-coupled goat anti-mouse antibody (Alexa 488 1:400 dilution Invitrogen) and Hoechst nuclear stain (1:2000; Invitrogen) in PBS containing 1% BSA for 1 hr. Immunostaining was detected using a GE InCell 2000 instrument at the following wavelengths: Hoechst Ex/Em 360/535 and Alexa 488 Ex/Em 480/535. Results were analyzed using GE InCell Analyzer software and represented as the increase fold of HMOX1 induction (Fold induction/FI) or the percentage of HMOX1 positive (% positive) cells over DMSO.
smiles,measurement,setting,value
"CN(C)C(=O)CNC(=O)c1ccc2c(c1)nc(Nc1nc3ccc(C(F)(F)F)cc3s1)n2C [HPP-C, 1-Methyl-2-(6-trifluoromethyl-benzothiazol-2-ylamino)-1H-benzimidazole-5-carboxylic acid dimethylcarbamoylmethyl-amide]",Hill slope of DMF dose response curves in Table 2,Bach1 Inhibitor Conc. 0.019 uM,2.00
same,Hill slope of DMF dose response curves in Table 2,Bach1 Inhibitor Conc. 0.039 uM,1.80
same,Hill slope of DMF dose response curves in Table 2,Bach1 Inhibitor Conc. 0.078 uM,1.79
same,Hill slope of DMF dose response curves in Table 2,Bach1 Inhibitor Conc. 0.156 uM,0.83
same,% Cells Positive HMOX,"Cpd. 0.019 uM, DMF 0 uM",3.60%
same,Fold Induction of HMOX,"Cpd. 0.019 uM, DMF 0 uM",1.29 fold
same,% Cells Positive HMOX,"Cpd. 0.019 uM, DMF 0.03 uM",1.18%
same,Fold Induction of HMOX,"Cpd. 0.019 uM, DMF 0.03 uM",1.10 fold
same,% Cells Positive HMOX,"Cpd. 0.019 uM, DMF 0.1 uM",2.37%
same,Fold Induction of HMOX,"Cpd. 0.019 uM, DMF 0.1 uM",1.15 fold
same,% Cells Positive HMOX,"Cpd. 0.019 uM, DMF 0.3 uM",6.49%
same,Fold Induction of HMOX,"Cpd. 0.019 uM, DMF 0.3 uM",1.24 fold
same,% Cells Positive HMOX,"Cpd. 0.019 uM, DMF 1 uM",10.18%
same,Fold Induction of HMOX,"Cpd. 0.019 uM, DMF 1 uM",1.68 fold
same,% Cells Positive HMOX,"Cpd. 0.019 uM, DMF 3 uM",51.54%
same,Fold Induction of HMOX,"Cpd. 0.019 uM, DMF 3 uM",2.86 fold
same,% Cells Positive HMOX,"Cpd. 0.019 uM, DMF 10 uM",94.22%
same,Fold Induction of HMOX,"Cpd. 0.019 uM, DMF 10 uM",5.75 fold
same,% Cells Positive HMOX,"Cpd. 0.019 uM, DMF 30 uM",84.20%
same,Fold Induction of HMOX,"Cpd. 0.019 uM, DMF 30 uM",4.65 fold
same,% Cells Positive HMOX,"Cpd. 0.039 uM, DMF 0 uM",2.31%
same,Fold Induction of HMOX,"Cpd. 0.039 uM, DMF 0 uM",1.37 fold
same,% Cells Positive HMOX,"Cpd. 0.039 uM, DMF 0.03 uM",5.74%
same,Fold Induction of HMOX,"Cpd. 0.039 uM, DMF 0.03 uM",1.28 fold
same,% Cells Positive HMOX,"Cpd. 0.039 uM, DMF 0.1 uM",6.82%
same,Fold Induction of HMOX,"Cpd. 0.039 uM, DMF 0.1 uM",1.35 fold
same,% Cells Positive HMOX,"Cpd. 0.039 uM, DMF 0.3 uM",12.76%
same,Fold Induction of HMOX,"Cpd. 0.039 uM, DMF 0.3 uM",1.61 fold
same,% Cells Positive HMOX,"Cpd. 0.039 uM, DMF 1 uM",23.54%
same,Fold Induction of HMOX,"Cpd. 0.039 uM, DMF 1 uM",2.10 fold
same,% Cells Positive HMOX,"Cpd. 0.039 uM, DMF 3 uM",68.03%
same,Fold Induction of HMOX,"Cpd. 0.039 uM, DMF 3 uM",3.01 fold
same,% Cells Positive HMOX,"Cpd. 0.039 uM, DMF 10 uM",94.66%
same,Fold Induction of HMOX,"Cpd. 0.039 uM, DMF 10 uM",5.13 fold
same,% Cells Positive HMOX,"Cpd. 0.039 uM, DMF 30 uM",90.40%
same,Fold Induction of HMOX,"Cpd. 0.039 uM, DMF 30 uM",4.90 fold
same,% Cells Positive HMOX,"Cpd. 0.078 uM, DMF 0 uM",7.12%
same,Fold Induction of HMOX,"Cpd. 0.078 uM, DMF 0 uM",1.59 fold
same,% Cells Positive HMOX,"Cpd. 0.078 uM, DMF 0.03 uM",5.99%
same,Fold Induction of HMOX,"Cpd. 0.078 uM, DMF 0.03 uM",1.37 fold
same,% Cells Positive HMOX,"Cpd. 0.078 uM, DMF 0.1 uM",8.24%
same,Fold Induction of HMOX,"Cpd. 0.078 uM, DMF 0.1 uM",1.48 fold
same,% Cells Positive HMOX,"Cpd. 0.078 uM, DMF 0.3 uM",16.20%
same,Fold Induction of HMOX,"Cpd. 0.078 uM, DMF 0.3 uM",1.73 fold
same,% Cells Positive HMOX,"Cpd. 0.078 uM, DMF 1 uM",37.74%
same,Fold Induction of HMOX,"Cpd. 0.078 uM, DMF 1 uM",2.53 fold
same,% Cells Positive HMOX,"Cpd. 0.078 uM, DMF 3 uM",81.81%
same,Fold Induction of HMOX,"Cpd. 0.078 uM, DMF 3 uM",4.33 fold
same,% Cells Positive HMOX,"Cpd. 0.078 uM, DMF 10 uM",97.16%
same,Fold Induction of HMOX,"Cpd. 0.078 uM, DMF 10 uM",6.46 fold
same,% Cells Positive HMOX,"Cpd. 0.078 uM, DMF 30 uM",96.15%
same,Fold Induction of HMOX,"Cpd. 0.078 uM, DMF 30 uM",6.18 fold
same,% Cells Positive HMOX,"Cpd. 0.156 uM, DMF 0 uM",28.56%
same,Fold Induction of HMOX,"Cpd. 0.156 uM, DMF 0 uM",2.66 fold
same,% Cells Positive HMOX,"Cpd. 0.156 uM, DMF 0.03 uM",22.08%
same,Fold Induction of HMOX,"Cpd. 0.156 uM, DMF 0.03 uM",1.99 fold
same,% Cells Positive HMOX,"Cpd. 0.156 uM, DMF 0.1 uM",33.12%
same,Fold Induction of HMOX,"Cpd. 0.156 uM, DMF 0.1 uM",2.54 fold
same,% Cells Positive HMOX,"Cpd. 0.156 uM, DMF 0.3 uM",49.95%
same,Fold Induction of HMOX,"Cpd. 0.156 uM, DMF 0.3 uM",3.06 fold
same,% Cells Positive HMOX,"Cpd. 0.156 uM, DMF 1 uM",66.67%
same,Fold Induction of HMOX,"Cpd. 0.156 uM, DMF 1 uM",4.08 fold
same,% Cells Positive HMOX,"Cpd. 0.156 uM, DMF 3 uM",88.98%
same,Fold Induction of HMOX,"Cpd. 0.156 uM, DMF 3 uM",4.57 fold
same,% Cells Positive HMOX,"Cpd. 0.156 uM, DMF 10 uM",100.00%
same,Fold Induction of HMOX,"Cpd. 0.156 uM, DMF 10 uM",6.55 fold
same,% Cells Positive HMOX,"Cpd. 0.156 uM, DMF 30 uM",84.03%
same,Fold Induction of HMOX,"Cpd. 0.156 uM, DMF 30 uM",5.49 fold
same,combination effect in terms of the % HMOX positive cells,combination with DMF at concentrations below their maximum effect (Table 2),additive or greater than additive
same,change of Hill slope of the DMF dose response curve (FIG. 5),upon increasing amounts of the Bach1 Inhibitor,reduced
